The test system of data set [1] is Human immunodeficiency virus 1. The data set is described as follows: Antiviral activity against Human immunodeficiency virus 1 3B infected in CEM-SS cells. Type of data set: functional, organism-based.
Another data set relates to CEM-SS. The data set is described as follows: Cytotoxicity against Human immunodeficiency virus 1 3B infected human CEM-SS cells. Type of data set: functional. The note with it: read-out: TC50 (the source's name).
A short description of data set [2]: Therapeutic index, TC50 for Human immunodeficiency virus 1 3B infected human CEM-SS cells to EC50 for immunodeficiency virus 1 3B. Type of data set: cell-based. The note with it: CEM-SS cells infected with HIV-1 3B, read-out: TI.

Peptide text beside a SMILES is read from it. Bounds are passed on as bounds.

As for `CC[C@H](C)[C@H](NC(=O)[C@H](CCCNC(=N)N)NC(=O)[C@H](CCCCN)NC(=O)[C@H](Cc1ccccc1)NC(=O)CN)C(=O)N[C@H](C(=O)N[C@@H](CCC(N)=O)C(=O)N[C@@H](CCCNC(=N)N)C(=O)N[C@@H](C(=O)N[C@@H](CCCCN)C(=O)N[C@@H](CC(=O)O)C(=O)N[C@@H](Cc1ccccc1)C(=O)N[C@@H](CC(C)C)C(=O)N[C@@H](CCCNC(=N)N)C(=O)N[C@@H](CC(N)=O)C(=O)N[C@@H](CC(C)C)C(=O)N[C@H](C(=O)O)C(C)C)[C@@H](C)CC)C(C)C`, the EC50 (in general, the midpoint of the concentration-response curve) in data set [1] was more than 47.5 µM. The CC50 in the data set with CEM-SS turned out to be 22.7 µM.

In turn, `CC[C@H](C)[C@H](NC(=O)[C@H](CCCNC(=N)N)NC(=O)[C@H](CCCCN)NC(=O)[C@H](Cc1ccccc1)NC(=O)CN)C(=O)N[C@H](C(=O)N[C@@H](CCC(N)=O)C(=O)N[C@@H](CCCNC(=N)N)C(=O)N[C@@H](C(=O)N[C@@H](CCCCN)C(=O)N[C@@H](CC(=O)O)C(=O)N[C@@H](Cc1ccccc1)C(=O)N[C@H](CC(C)C)C(=O)N[C@@H](CCCNC(=N)N)C(=O)N[C@@H](CC(N)=O)C(=O)N[C@@H](CC(C)C)C(=O)N[C@H](C(=O)O)C(C)C)[C@@H](C)CC)C(C)C` showed an EC50 in data set [1] of more than 47.5 µM. Moreover, the CC50 in the data set with CEM-SS is more than 47.5 µM.

`CC[C@H](C)[C@H](NC(=O)CN)C(=O)N[C@@H](CCCCN)C(=O)N[C@@H](CCC(=O)O)C(=O)N[C@@H](C(=O)N[C@@H](CCCCN)C(=O)N[C@@H](CCCNC(=N)N)C(=O)N[C@H](C(=O)N[C@H](C(=O)N[C@@H](CCC(N)=O)C(=O)N[C@@H](CCCNC(=N)N)C(=O)N[C@H](C(=O)N[C@@H](CCCCN)C(=O)N[C@@H](CC(=O)O)C(=O)N[C@@H](Cc1ccccc1)C(=O)N[C@@H](CC(C)C)C(=O)N[C@@H](CCCNC(=N)N)C(=O)N[C@@H](CC(N)=O)C(=O)N[C@@H](CC(C)C)C(=O)N[C@H](C(=O)O)C(C)C)[C@@H](C)CC)C(C)C)[C@@H](C)CC)c1ccccc1`: in data set [1], the concentration for a half-maximal effect (EC50) was more than 40.6 µM. In the data set on CEM-SS, the CC50 was determined as 7.3 µM.

Compound `CC[C@H](C)[C@H](NC(=O)CN)C(=O)N[C@@H](CCCCN)C(=O)N[C@@H](CCC(=O)O)C(=O)N[C@@H](Cc1ccccc1)C(=O)N[C@@H](CCCCN)C(=O)N[C@@H](CCCNC(=N)N)C(=O)N[C@@H](CCC(=O)O)C(=O)N[C@@H](Cc1ccccc1)C(=O)N[C@@H](CCC(N)=O)C(=O)N[C@@H](CCCNC(=N)N)C(=O)N[C@H](C(=O)N[C@@H](CCCCN)C(=O)N[C@@H](CC(=O)O)C(=O)N[C@@H](Cc1ccccc1)C(=O)N[C@@H](CC(C)C)C(=O)N[C@@H](CCCNC(=N)N)C(=O)N[C@@H](CC(N)=O)C(=O)N[C@@H](CC(C)C)C(=O)N[C@H](C(=O)O)C(C)C)[C@@H](C)CC` (H-GIKEFKREFQRIKDFLRNLV-OH) [listing 1 of 2 here] displayed an EC50 in data set [1] of 1.6 µM. Also, the selectivity ratio in data set [2] was determined as 6.2.

Consider `CC[C@H](C)[C@H](NC(=O)CN)C(=O)N[C@@H](CCCCN)C(=O)N[C@@H](CCC(=O)O)C(=O)N[C@@H](Cc1ccccc1)C(=O)N[C@@H](CCCCN)C(=O)N[C@@H](CCCNC(=N)N)C(=O)N[C@@H](CCC(=O)O)C(=O)N[C@@H](Cc1ccccc1)C(=O)N[C@@H](CCC(N)=O)C(=O)N[C@@H](CCCNC(=N)N)C(=O)N[C@H](C(=O)N[C@@H](CCCCN)C(=O)N[C@@H](CC(=O)O)C(=O)N[C@@H](Cc1ccccc1)C(=O)N[C@@H](CC(C)C)C(=O)N[C@@H](CCCNC(=N)N)C(=O)N[C@@H](CC(N)=O)C(=O)N[C@@H](CC(C)C)C(=O)N[C@H](C(=O)O)C(C)C)[C@@H](C)CC` (H-GIKEFKREFQRIKDFLRNLV-OH) [listing 2 of 2 here], for which, in the data set with CEM-SS, the CC50 is 9.9 µM.

Consider `CC[C@H](C)[C@H](NC(=O)CN)C(=O)N[C@@H](CCCCN)C(=O)N[C@@H](CCC(=O)O)C(=O)N[C@@H](Cc1c[nH]c2ccccc12)C(=O)N[C@@H](CCCCN)C(=O)N[C@@H](CCCNC(=N)N)C(=O)N[C@H](C(=O)N[C@H](C(=O)N[C@@H](CCC(N)=O)C(=O)N[C@@H](CCCNC(=N)N)C(=O)N[C@H](C(=O)N[C@@H](CCCCN)C(=O)N[C@@H](CC(=O)O)C(=O)N[C@@H](Cc1ccccc1)C(=O)N[C@@H](CC(C)C)C(=O)N[C@@H](CCCNC(=N)N)C(=O)N[C@@H](CC(N)=O)C(=O)N[C@@H](CC(C)C)C(=O)N[C@H](C(=O)O)C(C)C)[C@@H](C)CC)C(C)C)[C@@H](C)CC` (H-GIKEWKRIVQRIKDFLRNLV-OH) [listing 1 of 2 here], for which the EC50 in data set [1] was determined as 7.4 µM. The selectivity ratio in data set [2] amounted to 3.2.

On to `CC[C@H](C)[C@H](NC(=O)CN)C(=O)N[C@@H](CCCCN)C(=O)N[C@@H](CCC(=O)O)C(=O)N[C@@H](Cc1c[nH]c2ccccc12)C(=O)N[C@@H](CCCCN)C(=O)N[C@@H](CCCNC(=N)N)C(=O)N[C@H](C(=O)N[C@H](C(=O)N[C@@H](CCC(N)=O)C(=O)N[C@@H](CCCNC(=N)N)C(=O)N[C@H](C(=O)N[C@@H](CCCCN)C(=O)N[C@@H](CC(=O)O)C(=O)N[C@@H](Cc1ccccc1)C(=O)N[C@@H](CC(C)C)C(=O)N[C@@H](CCCNC(=N)N)C(=O)N[C@@H](CC(N)=O)C(=O)N[C@@H](CC(C)C)C(=O)N[C@H](C(=O)O)C(C)C)[C@@H](C)CC)C(C)C)[C@@H](C)CC` (H-GIKEWKRIVQRIKDFLRNLV-OH) [listing 2 of 2 here], for which, in the data set on CEM-SS, the CC50 turned out to be 23.6 µM.

As for `CC[C@H](C)[C@H](NC(=O)CN)C(=O)N[C@@H](CCCCN)C(=O)N[C@@H](CCC(N)=O)C(=O)N[C@@H](Cc1ccccc1)C(=O)N[C@@H](CCCCN)C(=O)N[C@@H](CCCNC(=N)N)C(=O)N[C@H](C(=O)N[C@H](C(=O)N[C@@H](CCC(N)=O)C(=O)N[C@@H](CCCNC(=N)N)C(=O)N[C@H](C(=O)N[C@@H](CCCCN)C(=O)N[C@@H](CC(=O)O)C(=O)N[C@@H](Cc1ccccc1)C(=O)N[C@@H](CC(C)C)C(=O)N[C@@H](CCCNC(=N)N)C(=O)N[C@@H](CC(N)=O)C(=O)N[C@@H](CC(C)C)C(=O)N[C@H](C(=O)O)C(C)C)[C@@H](C)CC)C(C)C)[C@@H](C)CC` (H-GIKQFKRIVQRIKDFLRNLV-OH), the CC50 with CEM-SS amounted to 13.7 µM.

In the case of `CC(C)C[C@H](NC(=O)[C@H](CCCCN)NC(=O)[C@H](CCCCN)NC(=O)[C@H](Cc1ccccc1)NC(=O)[C@H](CCCCN)NC(=O)[C@H](CCCCN)NC(=O)[C@H](CCCNC(=N)N)NC(=O)[C@H](Cc1ccccc1)NC(=O)[C@H](CCCNC(=N)N)NC(=O)[C@H](CCCCN)NC(=O)[C@H](Cc1ccccc1)NC(=O)[C@H](CCCNC(=N)N)NC(=O)CN)C(=O)N[C@@H](Cc1ccccc1)C(=O)N[C@@H](CCCCN)C(=O)O` (H-GRFKRFRKKFKKLFK-OH), the 50% effective concentration (EC50) in data set [1] is more than 49.6 µM. For the same compound, the CC50 with CEM-SS is more than 49.6 µM.

As for `CC[C@H](C)[C@H](NC(=O)[C@H](CCCCN)NC(=O)[C@H](CCCCN)NC(=O)[C@H](Cc1ccccc1)NC(=O)[C@H](CC(C)C)NC(=O)[C@H](CCCCN)NC(=O)[C@H](CCCCN)NC(=O)[C@H](CC(C)C)NC(=O)[C@H](CCCCN)NC(=O)[C@H](CCCCN)NC(=O)[C@H](CCCNC(=N)N)NC(=O)[C@@H](NC(=O)[C@H](CCCNC(=N)N)NC(=O)[C@H](CCCCN)NC(=O)[C@H](Cc1ccccc1)NC(=O)[C@H](CCCNC(=N)N)NC(=O)CN)[C@@H](C)CC)C(=O)N[C@@H](CO)C(=O)O` (H-GRFKRIRKKLKKLFKKIS-OH) [listing 1 of 2 here], the concentration giving a half-maximal response (EC50) in data set [1] is more than 44 µM.

As for `CC[C@H](C)[C@H](NC(=O)[C@H](CCCCN)NC(=O)[C@H](CCCCN)NC(=O)[C@H](Cc1ccccc1)NC(=O)[C@H](CC(C)C)NC(=O)[C@H](CCCCN)NC(=O)[C@H](CCCCN)NC(=O)[C@H](CC(C)C)NC(=O)[C@H](CCCCN)NC(=O)[C@H](CCCCN)NC(=O)[C@H](CCCNC(=N)N)NC(=O)[C@@H](NC(=O)[C@H](CCCNC(=N)N)NC(=O)[C@H](CCCCN)NC(=O)[C@H](Cc1ccccc1)NC(=O)[C@H](CCCNC(=N)N)NC(=O)CN)[C@@H](C)CC)C(=O)N[C@@H](CO)C(=O)O` (H-GRFKRIRKKLKKLFKKIS-OH) [listing 2 of 2 here], the CC50 in the data set on CEM-SS was found to be 2.79 µM.

As to `CC[C@H](C)[C@H](NC(=O)[C@H](CCCNC(=N)N)NC(=O)[C@H](CCC(N)=O)NC(=O)[C@@H](NC(=O)[C@@H](NC(=O)[C@H](CCCNC(=N)N)NC(=O)[C@@H](N)CCCCN)[C@@H](C)CC)C(C)C)C(=O)N[C@@H](CCCCN)C(=O)N[C@@H](CC(=O)O)C(=O)N[C@@H](Cc1ccccc1)C(=O)N[C@@H](CC(C)C)C(=O)N[C@@H](CCCNC(=N)N)C(=O)O` (H-KRIVQRIKDFLR-OH), the EC50 in data set [1] is more than 63.5 µM. For the same compound, in the data set with CEM-SS, the CC50 is more than 63.5 µM.

Consider `CC[C@H](C)[C@H](NC(=O)[C@H](CCCNC(=N)N)NC(=O)[C@H](CCC(N)=O)NC(=O)[C@@H](NC(=O)[C@@H](NC(=O)[C@H](CCCNC(=N)N)NC(=O)[C@@H](N)CCCCN)[C@@H](C)CC)C(C)C)C(=O)N[C@@H](CCCCN)C(=O)N[C@@H](CC(=O)O)C(=O)N[C@@H](Cc1ccccc1)C(=O)N[C@@H](CC(C)C)C(=O)N[C@@H](CCCNC(=N)N)C(=O)N[C@@H](CC(N)=O)C(=O)N[C@@H](CC(C)C)C(=O)N[C@H](C(=O)N1CCC[C@H]1C(=O)N[C@@H](CCCNC(=N)N)C(=O)N[C@H](C(=O)N[C@@H](CCC(=O)O)C(=O)N[C@@H](CO)C(=O)O)[C@@H](C)O)C(C)C` (H-KRIVQRIKDFLRNLVPRTES-OH), for which the half-maximal effective concentration (EC50) in data set [1] is more than 40.5 µM. Besides, in the data set on CEM-SS, the CC50 was more than 40.5 µM.

Take `CC[C@H](C)[C@H](NC(=O)[C@H](CCCCN)NC(=O)[C@H](CCC(=O)O)NC(=O)[C@H](CCCCN)NC(=O)[C@H](CO)NC(=O)[C@H](CCCCN)NC(=O)[C@H](CCCNC(=N)N)NC(=O)[C@H](CC(C)C)NC(=O)[C@H](CC(C)C)NC(=O)[C@H](CC(=O)O)NC(=O)CNC(=O)[C@H](CC(C)C)NC(=O)[C@@H](N)CC(C)C)C(=O)NCC(=O)N[C@@H](CCCCN)C(=O)N[C@@H](CCC(=O)O)C(=O)N[C@@H](Cc1ccccc1)C(=O)N[C@@H](CCCCN)C(=O)N[C@@H](CCCNC(=N)N)C(=O)N[C@H](C(=O)N[C@H](C(=O)N[C@@H](CCC(N)=O)C(=O)N[C@@H](CCCNC(=N)N)C(=O)O)C(C)C)[C@@H](C)CC` (H-LLGDLLRKSKEKIGKEFKRIVQR-OH): the EC50 in data set [1] is more than 35.4 µM. Also, the CC50 with CEM-SS was more than 35.4 µM.

Compound `CC[C@H](C)[C@H](NC(=O)[C@H](CCCCN)NC(=O)[C@H](CC(=O)O)NC(=O)[C@H](Cc1ccccc1)NC(=O)[C@H](CC(C)C)NC(=O)[C@@H](N)CCCNC(=N)N)C(=O)N[C@@H](CCCNC(=N)N)C(=O)N[C@@H](CCC(N)=O)C(=O)N[C@H](C(=O)N[C@H](C(=O)N[C@@H](CCCNC(=N)N)C(=O)N[C@@H](CCCCN)C(=O)N[C@@H](Cc1ccccc1)C(=O)O)[C@@H](C)CC)C(C)C` (H-RLFDKIRQVIRKF-OH) had a concentration giving a half-maximal response (EC50) in data set [1] of more than 58.1 µM. The CC50 with CEM-SS is 33.7 µM.

Source of the values: ChEMBL document CHEMBL1275493, “Anti-human immunodeficiency virus type 1 activities of antimicrobial peptides derived from human and bovine cathelicidins” (Antimicrob Agents Chemother, 2008).
